Laboratory results as given in patent US20180057505A1, “BICYCLIC HETEROARYL COMPOUNDS USEFUL AS INHIBITORS OF THE PAR-2 SIGNALING PATHWAY” (VERTEX PHARMACEUTICALS INCORPORATED, priority 2015, published 2018).

Tests used:
Assay type in all cases: cell-based
[1] = tested on: UTP-stimulated Ca2+ response in HT-29 cells; assay: Ca FLIPR TETRA assay, ANTAGONIST mode, activator 0.6 μM UTP; details: for IC50: HT-29 cells, activator 0.6 μM UTP; for inhibition at 50 µM: HT-29
Procedure, shortened: (§1)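 HT-29 cells in 1% FBS/McCoy's overnight, loaded with FLIPR Calcium 5 dye (45 min 37 °C, 15 min r.t.); compounds added and read for intrinsic Ca2+ activation, then after 30 min r.t. stimulated with fixed activator: 8 μM SLIGKV, 0.6 μM UTP, 1 U/mL thrombin or 3.1 U/mL trypsin (final).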

[2] = molecular target: T1, PAR2 (HT-29 cells) (Homo sapiens, UniProt P55085); assay: Ca FLIPR TETRA assay, ANTAGONIST mode, activator 3.1 U/mL trypsin; details: HT-29 cells, activator 3.1 U/mL trypsin
T1 construct: host or cells: HT-29
T1 sequence (P55085 26-397): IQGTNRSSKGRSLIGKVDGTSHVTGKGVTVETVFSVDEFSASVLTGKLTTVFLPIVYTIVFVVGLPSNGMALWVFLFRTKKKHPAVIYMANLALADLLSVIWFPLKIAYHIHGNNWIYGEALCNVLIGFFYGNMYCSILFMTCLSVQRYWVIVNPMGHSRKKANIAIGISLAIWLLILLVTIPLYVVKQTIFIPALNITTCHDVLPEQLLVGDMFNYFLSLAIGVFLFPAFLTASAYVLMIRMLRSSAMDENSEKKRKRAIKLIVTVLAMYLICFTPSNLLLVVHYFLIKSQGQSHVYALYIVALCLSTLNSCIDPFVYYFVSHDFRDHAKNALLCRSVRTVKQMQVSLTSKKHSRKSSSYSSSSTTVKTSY
Procedure, shortened: as §1

[3] = molecular target: T1, PAR2 (HT-29 cells); assay: Ca FLIPR TETRA assay, ANTAGONIST mode, activator 8 μM SLIGKV; details: for IC50: HT-29 cells, activator 8 μM SLIGKV
Procedure, shortened: as §1

[4] = tested on: Thrombin-stimulated Ca2+ response in HT-29 cells; assay: Ca FLIPR TETRA assay, ANTAGONIST mode, activator 1 U/mL Thrombin; details: HT-29 cells, activator 1 U/mL Thrombin
Procedure, shortened: as §1

[5] = maximal antagonist concentration per Method (A: 0.1, 1 or 2 μM; B: 50 μM)
[6] = Method A: maximal concentration of antagonist 0.1, 1 or 2 μM

Compound | IC50 ([1]; Homo sapiens) [µM] | IC50 [2, 5] [µM] | IC50 [3, 5] [µM] | IC50 ([4]; Homo sapiens) [µM] | IC50 [2, 6] [µM] | IC50 [3, 6] [µM] | SLIGKV, % @ 50 ([3]; @ 50 (μM)) [% @ 50] | IC50 [1] [µM] | IC50 [4] [µM] | inhibition at 50 µM ([1]; Homo sapiens) [%]
CC(C)(C)c1cc(-c2ccc(Cl)c(F)c2)nc2cc(C(=O)N3CCN(c4cn[nH]c4)CC3(C)C)oc12 [Example I-259] | > 2 | 0.0079 | 0.008 | > 2 |  |  |  |  |  | 
CC(C)c1cc(-c2ccc(F)cc2)nc2cc(C(=O)N3CCN(C(=O)CC(C)(C)O)CC3(C)C)oc12 [Example I-62] | 5.2 | 0.039 | 0.04 | 4.7 |  |  |  |  |  | 
CN1CCN(C(=O)c2cc3nc(-c4cccc(Cl)c4)cc(C(C)(C)C)c3o2)C(C)(C)C1=O [Example I-242] | > 2 | 0.024 | 0.019 | > 2 |  |  |  |  |  | 
CC(C)(C)c1cc(-c2ccc(F)cc2)nc2cc(C(=O)N3CCN(C(=O)[C@H]4C[C@@](C)(O)C4)CC3(C)C)oc12 [Example I-151] | > 1 | 0.0027 | 0.0015 | > 1 |  |  |  |  |  | 
Cc1cc(C(=O)O)nc(N2CCN(C(=O)c3cc4nc(C5CCC(C)(C)CC5)cc(C(C)(C)C)c4o3)C(C)(C)C2)n1 [Example I-408] | 0.51 |  |  | 0.86 | 0.001 | 0.0007 |  |  |  | 
CC1(c2cc(-c3ccc(F)cc3)nc3cc(C(=O)N4CCN(C(=O)C5(C(F)(F)F)CC5)CC4(C)C)oc23)CC1 [Example I-55] | > 33 | 0.0046 | 0.0028 | 29 |  |  |  |  |  | 
Cc1nnc(C(=O)N2CCN(C(=O)c3cc4nc(-c5ccc(C(F)(F)F)cc5)cc(C(C)(C)C)c4o3)C(C)(C)C2)[nH]1 [Example I-174] | > 1 | 0.0032 | 0.0019 | > 1 |  |  |  |  |  | 
CC(C)c1cc(-c2ccc(F)cc2)nc2cc(C(=O)N3CCN(C(=O)C(C)(C)O)CC3(C)C)oc12 [Example I-1] | 20 | 0.064 | 0.068 | 19 |  |  |  |  |  | 
CC1(c2cc(-c3ccc(F)cc3)nc3cc(C(=O)N4CCN(C(=O)C5CCC5)CC4(C)C)oc23)CC1 [Example I-48] | 16 | 0.0059 | 0.0051 | 16 |  |  |  |  |  | 
CC(C)c1cc(-c2ccc(F)cc2)nc2cc(C(=O)N3CCN(C(=O)[C@@H](C)O)C[C@H]3C)oc12 [Example I-98] | 20 | 7 | 5.3 | 18 |  |  |  |  |  | 
CC(C)(C)c1cc(-c2ccc(Cl)cc2)nc2cc(C(=O)N3CCN(c4ccccn4)C(=O)C3(C)C)oc12 [Example I-330] | > 2 |  |  | > 2 | 0.032 | 0.021 |  |  |  | 
CC(C)c1cc(-c2ccc(F)cc2)nc2cc(C(=O)N3CCN(C(=O)OC(C)(C)C)CC3)oc12 [Example I-77] | > 50 | 23 |  | > 50 |  |  | 64 |  |  | 
CC1(C(=O)N2CCN(C(=O)c3cc4nc(-c5ccc(F)cc5)cc(C5(C)CC5)c4o3)C(C)(C)C2)CCCCC1 [Example I-43] | > 50 | 0.0082 | 0.0069 | > 50 |  |  |  |  |  | 
CC1(c2cc(-c3ccc(F)cc3)nc3cc(C(=O)N4CCN(C(=O)C5(C#N)CC5)CC4(C)C)oc23)CC1 [Example I-51] | > 50 | 0.0053 | 0.0058 | 24 |  |  |  |  |  | 
CC(C)(C)c1cc(C2CC3(CCC3)C2)nc2cc(C(=O)N3CCN(C(=O)[C@H]4CC[C@@](C)(C(=O)O)CC4)CC3(C)C)oc12 [Example I-297] | 1.2 | 0.0002 | 0.0002 | 1.4 |  |  |  |  |  | 
Cc1oc(C2CCN(C(=O)c3cc4nc(-c5ccc(Cl)cc5)cc(C(C)(C)C)c4o3)C(C)(C)C2)nc1C(=O)O (stereo not drawn) [Example I-431] |  |  |  |  | 0.0009 | 0.0007 |  | > 2 | > 2 | 
CC(C)(C)c1cc(N2CCC3(CC2)CC3)nc2cc(C(=O)N3CCN(C(=O)[C@H]4C[C@@](C)(O)C4)CC3(C)C)oc12 [Example I-435] | > 2 |  |  | > 2 | 0.0038 | 0.0016 |  |  |  | 
CC(C)(C)c1cc(-c2ccc(Cl)cc2)nc2cc(C(=O)N3CCN(c4cnccn4)CC3(C)C)oc12 [Example I-402] | > 2 |  |  | > 2 | 0.015 | 0.021 |  |  |  | 

Compound | IC50 ([1]; Homo sapiens) [µM] | IC50 [2, 5] [µM] | IC50 [3, 5] [µM] | IC50 ([4]; Homo sapiens) [µM] | IC50 [2, 6] [µM] | IC50 [3, 6] [µM] | SLIGKV, % @ 50 ([3]; @ 50 (μM)) [% @ 50] | IC50 [1] [µM] | IC50 [4] [µM] | inhibition at 50 µM ([1]; Homo sapiens) [%]
CC(C)(C)c1cc(-c2ccc(Cl)c(F)c2)nc2cc(C(=O)N3CCN(S(C)(=O)=O)CC3(C)C)oc12 [Example I-508] | > 2 |  |  | > 2 | 0.01 | 0.0081 |  |  |  | 
CC1(c2cc(-c3ccc(F)cc3)nc3cc(C(=O)N4CCN(C(=O)C5(O)CCC5)CC4(C)C)oc23)CC1 [Example I-56] | 5.2 | 0.031 | 0.016 | 9 |  |  |  |  |  | 
CC(C)(C)c1cc(-c2ccc(Cl)c(F)c2)nc2cc(C(=O)N3CCN(c4nc(C(=O)O)ccc4Cl)CC3(C)C)oc12 [Example I-365] | > 2 |  |  | > 2 | 0.0003 | 0.0002 |  |  |  | 
CC(C)(C)c1cc(-c2ccc(Cl)cc2)nc2cc(C(=O)N3CCN(c4ccc(C(=O)O)nn4)CC3(C)C)oc12 [Example I-471] | > 2 |  |  | > 2 | 0.0014 | 0.0011 |  |  |  | 
CC(C)c1cc(-c2ccc(F)cc2)nc2cc(C(=O)N3CCN(C(=O)[C@H](O)CC(C)(C)C)C[C@@H]3C)oc12 [Example I-104] |  | 0.83 | 0.73 | 2.6 |  |  |  |  |  | 64
Cc1ccnc(N2CCN(C(=O)c3cc4nc(C5CCC(C)(C)CC5)cc(C(C)(C)C)c4o3)C(C)(C)C2=O)n1 [Example I-339] | > 2 |  |  | > 2 | 0.0031 | 0.0013 |  |  |  | 
C[C@H]1CN(C(=O)c2cc3nc(-c4ccc(F)cc4)cc(C4(C)CC4)c3o2)CCN1C(=O)c1ccn[nH]1 [Example I-122] | 1.6 | 0.33 | 1 | 1.9 |  |  |  |  |  | 
CC(C)(C)c1cc(-c2ccc(Cl)cc2)nc2cc(C(=O)N3CCN(c4nc(C(=O)O)ccc4F)CC3(C)C)oc12 [Example I-502] |  |  |  |  | 0.0002 | 0.0002 |  | > 2 | > 2 | 
Cn1nccc1S(=O)(=O)N1CCN(C(=O)c2cc3nc(-c4ccc(Cl)c(F)c4)cc(C(C)(C)C)c3o2)C(C)(C)C1=O [Example I-342] | > 2 |  |  | > 2 | 0.09 | 0.094 |  |  |  | 
Cc1ccc(N2CCN(C(=O)c3cc4nc(C5CCC(C)(C)CC5)cc(C(C)(C)C)c4o3)C(C)(C)C2)nc1-c1nnn[nH]1 [Example I-533] | > 2 |  |  | > 2 | 0.0017 | 0.0007 |  |  |  | 
CC(C)(C)c1cc(-c2ccc(Cl)c(F)c2)nc2cc(C(=O)N3CCN(C(=O)CCC(=O)O)CC3(C)C)oc12 [Example I-419] | > 1.25 |  |  | > 1.25 | 0.003 | 0.0011 |  |  |  | 
Cc1cc(C(=O)N2CCN(C(=O)c3cc4nc(C5CCC(F)(F)CC5)cc(C(C)(C)C)c4o3)C(C)(C)C2=O)[nH]n1 [Example I-223] |  | 0.039 | 0.0138 |  |  |  |  | > 2 | > 2 | 
CC1(c2cc(-c3ccc(F)cc3)nc3cc(C(=O)N4CCN(C(=O)C5CC5)CC4(C)C)oc23)CC1 [Example I-49] | 18 | 0.012 | 0.0059 | 15 |  |  |  |  |  | 
CC(=O)N1CCN(C(=O)c2cc3nc(-c4ccc(F)cc4)cc(C(C)C)c3o2)C(C)(C)C1 [Example I-24] | 9.9 | 0.044 | 0.048 | 8.7 |  |  |  |  |  | 
CC(C)c1cc(-c2ccc(F)cc2)nc2cc(C(=O)N3CCN(C(=O)CC(C)(C)C)CC3(C)C)oc12 [Example I-21] |  | 0.0026 | 0.0014 | > 50 |  |  |  |  |  | 59
CC[C@H](C(=O)N1CCN(C(=O)c2cc3nc(-c4ccc(F)cc4)cc(C4(C)CC4)c3o2)C(C)(C)C1)c1ccccc1 [Example I-47] | > 50 | 0.078 | 0.029 | > 50 |  |  |  |  |  | 
CC(C)[C@H](CC(=O)N1CCN(C(=O)c2cc3nc(-c4ccc(Cl)cc4)cc(C(C)(C)C)c3o2)C(C)(C)C1)C(=O)O [Example I-333] | 2 |  |  | 1.8 | 0.0007 | 0.0004 |  |  |  | 
Cc1cc(C(=O)N2CCN(C(=O)c3cc4nc(-c5ccc(Cl)c(F)c5)cc(C(C)(C)C)c4o3)C(C)(C)C2)[nH]n1 [Example I-504] | > 2 |  |  | > 2 | 0.0017 | 0.0012 |  |  |  | 
